Experimental findings from PubChem BioAssay AID330 (DTP/NCI, 2004) are described below.

The test concerns P388 leukemia ip, CD2F1 mice, survival T/C. The test is described as follows: NCI In Vivo Anticancer Drug Screen. Data for tumor model P388 Leukemia (intraperitoneal) in CD2F1 (CDF1) mice. Particulars: endpoint: median survival time, higher = longer survival. An outline of the steps: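 Mice carrying the transplanted tumor received test compound or vehicle. Survival was recorded in each group, and the value is the treated-group measurement divided by that of the vehicle-treated control group.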

The mark [1] stands for this setting: dose: 50.0 mg/kg/injection, schedule: Q01DX005 (ip), vehicle: saline with Tween-80.
The mark [2] stands for this setting: dose: 100.0 mg/kg/injection, schedule: Q01DX005 (ip), vehicle: saline with Tween-80.
Setting [3] is: dose: 200.0 mg/kg/injection, schedule: Q01DX005 (ip), vehicle: saline with Tween-80.
The mark [4] stands for this setting: dose: 60.0 mg/kg/injection, schedule: Q01DX005 (ip), vehicle: saline with Tween-80.
The mark [5] stands for this setting: dose: 120.0 mg/kg/injection, schedule: Q01DX005 (ip), vehicle: saline with Tween-80.
The mark [6] stands for this setting: dose: 240.0 mg/kg/injection, schedule: Q01DX005 (ip), vehicle: saline with Tween-80.
Setting [7] is: dose: 50.0 mg/kg/injection, schedule: Q01DX009 (ip), vehicle: saline with Tween-80.
The mark [8] stands for this setting: dose: 100.0 mg/kg/injection, schedule: Q01DX009 (ip), vehicle: saline with Tween-80.
Where [9] appears, read: dose: 200.0 mg/kg/injection, schedule: Q01DX009 (ip), vehicle: saline with Tween-80.
Setting [10] is: dose: 50.0 mg/kg/injection, schedule: Q01DX005 (ip), vehicle: Klucel (hydroxypropylcellulose) (HPC).
Setting [11] is: dose: 100.0 mg/kg/injection, schedule: Q01DX005 (ip), vehicle: Klucel (hydroxypropylcellulose) (HPC).
[12] abbreviates: dose: 100.0 mg/kg/injection, schedule: Q04DX002 (ip), vehicle: saline with Tween-80.
Setting [13] is: dose: 200.0 mg/kg/injection, schedule: Q04DX002 (ip), vehicle: saline with Tween-80.
[14] abbreviates: dose: 400.0 mg/kg/injection, schedule: Q04DX002 (ip), vehicle: saline with Tween-80.

Several values for one entry are separate records, joined by “and”; a condition that tells them apart may be missing. Equal values may be shown once. Toxic doses and inconclusive results are not listed.

Consider `Cc1ccccc1C(=Nc1ccccc1)Oc1ccccc1[N+](=O)[O-]`, for which the T/C is 100 % of control (dose: 100.0 mg/kg/injection, schedule: Q04DX003 (ip), vehicle: saline); 100 % of control (dose: 200.0 mg/kg/injection, schedule: Q04DX003 (ip), vehicle: saline); 100 % of control (dose: 400.0 mg/kg/injection, schedule: Q04DX003 (ip), vehicle: saline).
As for `CCOC1=NC2C(O1)C1C3C2C13` (stereo not drawn), the T/C is 103 % of control under setting [1], 105 % of control under setting [2] and 105 % of control under setting [3].
As to `CCc1nc(N)nc(N)c1-c1ccc([N+](=O)[O-])c(Cl)c1`, the T/C runs as follows: under setting [2], 152 % of control; under setting [3], 93 % of control.
For the compound `O=C(Cc1nc2ccc([N+](=O)[O-])cc2nc1CC(=O)c1ccccc1)c1ccccc1`, the T/C under setting [4] is 110 % of control, the T/C under setting [5] is 103 % of control and the T/C under setting [6] is 100 % of control.
In the case of `C/C(=C\c1ccc(OCC(=O)O)c2ccccc12)[N+](=O)[O-]`, the T/C (dose: 25.0 mg/kg/injection, schedule: Q01DX001 (ip), vehicle: saline with Tween-80) was 110 % of control; the T/C (dose: 50.0 mg/kg/injection, schedule: Q01DX001 (ip), vehicle: saline with Tween-80) is 111 % of control; the T/C (dose: 100.0 mg/kg/injection, schedule: Q01DX001 (ip), vehicle: saline with Tween-80) was 101 % of control.
On to `O=c1[nH]n(CCc2ccccn2)c(=O)c(Cl)c1Cl`, for which the T/C was 96 % of control under setting [1], 100 % of control under setting [2] and 92 % of control under setting [3].
Regarding `O=C1OC(=O)C2CCC12` (stereo not drawn), the T/C reads like this: under setting [7], 106 % of control; (dose: 60.0 mg/kg/injection, schedule: Q01DX005 (ip), vehicle: saline) 93 % of control; under setting [8], 106 % of control; (dose: 120.0 mg/kg/injection, schedule: Q01DX005 (ip), vehicle: saline) 89 % of control; under setting [9], 97 % of control; (dose: 240.0 mg/kg/injection, schedule: Q01DX005 (ip), vehicle: saline) 86 % of control.
With `N#Cc1c(NC(=S)NC(=O)c2ccc(Cl)c(Cl)c2)sc(=S)c2c1CCCC2`, the T/C was 108 % of control under setting [7], 96 % of control under setting [8] and 92 % of control under setting [9].
In the case of `O=C(NC(Cc1c[nH]c2ccccc12)C(=O)O)OCC1c2ccccc2-c2ccccc21` (stereo not drawn), the T/C runs as follows: under setting [10], 100 % of control; under setting [11], 95 % of control.
Regarding `COc1cc(OC)c(NC(=S)NC(C)C)cc1Cl`, the T/C was 91 % of control (dose: 50.0 mg/kg/injection, schedule: Q01DX009 (ip), vehicle: Klucel (hydroxypropylcellulose) (HPC)); 96 % of control (dose: 100.0 mg/kg/injection, schedule: Q01DX009 (ip), vehicle: Klucel (hydroxypropylcellulose) (HPC)); 99 % of control (dose: 200.0 mg/kg/injection, schedule: Q01DX009 (ip), vehicle: Klucel (hydroxypropylcellulose) (HPC)).
With `O=C1CCSC(=S)N1c1ccc(F)c(F)c1`, the T/C reads like this: (dose: 50.0 mg/kg/injection, schedule: Q01DX009 (ip), vehicle: suspension in saline) 107 % of control; (dose: 100.0 mg/kg/injection, schedule: Q01DX009 (ip), vehicle: suspension in saline) 92 % of control; (dose: 200.0 mg/kg/injection, schedule: Q01DX009 (ip), vehicle: suspension in saline) 92 % of control.
Take `c1ccc2[nH]c(N=Nc3cccc4c(N=Nc5cc6ccccc6[nH]5)cccc34)cc2c1`: the T/C is 100 % of control under setting [7], 100 % of control under setting [8] and 103 % of control under setting [9].
For `CCOCCOC(=O)c1nn(-c2ccc(Cl)cc2)c2c1C(=O)c1ccccc1C2=O`, the T/C was 94 % of control under setting [10]; 100 % of control under setting [11]; 101 % of control (dose: 200.0 mg/kg/injection, schedule: Q01DX005 (ip), vehicle: Klucel (hydroxypropylcellulose) (HPC)).
On to `CSC(=S)NC#N`, for which the T/C runs as follows: (dose: 25.0 mg/kg/injection, schedule: Q01DX009 (ip), vehicle: saline with Tween-80) 111 % of control; under setting [7], 100 % of control; under setting [8], 107 % of control; under setting [9], 108 % of control.
For `CCCc1[nH]n(-c2cccc([N+](=O)[O-])c2)c(=O)c1N=Nc1ccc(Cl)cc1`, the T/C by setting is: (dose: 50.0 mg/kg/injection, schedule: Q01DX009 (ip), vehicle: saline) 93 % of control; (dose: 100.0 mg/kg/injection, schedule: Q01DX009 (ip), vehicle: saline) 90 % of control; (dose: 200.0 mg/kg/injection, schedule: Q01DX009 (ip), vehicle: saline) 87 % of control.
On to `COC1=C(OC)C(=O)C=CC1=O`, for which the T/C (dose: 0.78 mg/kg/injection, schedule: Q01DX009 (ip), vehicle: saline) is 101 % of control; the T/C (dose: 1.56 mg/kg/injection, schedule: Q01DX009 (ip), vehicle: saline) is 94 % of control; the T/C (dose: 3.13 mg/kg/injection, schedule: Q01DX009 (ip), vehicle: saline) is 96 % of control; the T/C (dose: 6.25 mg/kg/injection, schedule: Q01DX009 (ip), vehicle: saline) was 102 % of control.
Consider `CC(C)NC(=S)NCc1ccc(Cl)c(Cl)c1`, for which the T/C reads like this: (dose: 50.0 mg/kg/injection, schedule: Q01DX009 (ip), vehicle: other) 88 % of control; (dose: 100.0 mg/kg/injection, schedule: Q01DX009 (ip), vehicle: other) 96 % of control.
On to `CC(C)(C)C1CCC(O)(Cc2ccccc2)CC1` (stereo not drawn), for which the T/C reads like this: under setting [1], 101 % of control; under setting [2], 91 % of control; under setting [3], 99 % of control.
With `COC(=O)/N=C1\C(=O)C=CC(O)=C1C(N)=O`, the T/C is, setting by setting: (dose: 6.25 mg/kg/injection, schedule: Q01DX005 (ip), vehicle: saline with Tween-80) 90 % of control; (dose: 12.5 mg/kg/injection, schedule: Q01DX005 (ip), vehicle: saline with Tween-80) 94 % of control; (dose: 25.0 mg/kg/injection, schedule: Q01DX005 (ip), vehicle: saline with Tween-80) 92 % of control.
Turning to `C[CH2][Sn]([CH2]C)[O][Sn]([Cl])([CH2]C)[CH2]C`, the T/C (dose: 3.12 mg/kg/injection, schedule: Q01DX005 (ip), vehicle: Klucel (hydroxypropylcellulose) (HPC)) is 116 % of control; the T/C (dose: 6.25 mg/kg/injection, schedule: Q01DX005 (ip), vehicle: Klucel (hydroxypropylcellulose) (HPC)) was 118 % of control and 121 % of control; the T/C (dose: 12.5 mg/kg/injection, schedule: Q01DX005 (ip), vehicle: Klucel (hydroxypropylcellulose) (HPC)) is 104 % of control and 121 % of control; the T/C (dose: 25.0 mg/kg/injection, schedule: Q01DX005 (ip), vehicle: Klucel (hydroxypropylcellulose) (HPC)) is 120 % of control.
As to `O=C1OCCOCCOC(=O)C(=O)OCCOCCOC1=O`, the T/C runs as follows: (dose: 100.0 mg/kg/injection, schedule: Q04DX003 (ip), vehicle: Klucel (hydroxypropylcellulose) (HPC)) 98 % of control; (dose: 200.0 mg/kg/injection, schedule: Q04DX003 (ip), vehicle: Klucel (hydroxypropylcellulose) (HPC)) 100 % of control; (dose: 400.0 mg/kg/injection, schedule: Q04DX003 (ip), vehicle: Klucel (hydroxypropylcellulose) (HPC)) 98 % of control.
For the compound `O=C(N/N=C/c1cc(Cl)cc(Cl)c1[O-])c1ccccc1.O=C(N/N=C/c1cc(Cl)cc(Cl)c1[O-])c1ccccc1.[Fe+2]`, the T/C was 98 % of control under setting [12], 103 % of control under setting [13] and 100 % of control under setting [14].
`O=C1CN(CCCN2CCOCC2)CC(=O)N2CCCCN12`: the T/C was 100 % of control (dose: 50.0 mg/kg/injection, schedule: Q01DX005 (ip), vehicle: saline); 105 % of control (dose: 100.0 mg/kg/injection, schedule: Q01DX005 (ip), vehicle: saline); 102 % of control (dose: 200.0 mg/kg/injection, schedule: Q01DX005 (ip), vehicle: saline).
For `CCCCCCCOC(=O)c1cc2cc(C(CC)C(CC)c3ccc(O)cc3)ccc2oc1=O` (stereo not drawn), the T/C runs as follows: under setting [4], 105 % of control; under setting [5], 92 % of control; under setting [6], 95 % of control.
Take `C/C(=N\NC(N)=Nc1ccc(Cl)cc1)c1ccc2c(c1)Cc1ccccc1-2`: the T/C is 104 % of control under setting [12], 111 % of control under setting [13] and 114 % of control under setting [14].
